Measured values taken from the CheMixHub viscosity set.
± gives the uncertainty stated by the source.

Test: xn = mol fraction of the nth substance listed

ClC=C(Cl)Cl + C1CCOC1
303.15 K, 101 kPa
Settings	viscosity [mPa·s]
x2 = 0.0614	0.5484 ± 0.0046
x2 = 0.1057	0.5631 ± 0.0047
x2 = 0.2281	0.5879 ± 0.0049
x2 = 0.3529	0.5932 ± 0.005
x2 = 0.4929	0.5817 ± 0.0049
x2 = 0.5166	0.5781 ± 0.0049
x2 = 0.64	0.556 ± 0.0047
x2 = 0.7608	0.5289 ± 0.0045
x2 = 0.8813	0.4983 ± 0.0043
x2 = 0.9421	0.4822 ± 0.0042

NC1CCCCC1 + CCC(C)O
298.15 K, 101 kPa
Settings	viscosity [mPa·s]
x1 = 0.0767	2.804 ± 0.032
x1 = 0.1574	2.619 ± 0.03
x1 = 0.2426	2.472 ± 0.029
x1 = 0.3325	2.369 ± 0.027
x1 = 0.4277	2.302 ± 0.027
x1 = 0.5285	2.25 ± 0.026
x1 = 0.6355	2.224 ± 0.026
x1 = 0.7493	2.148 ± 0.025
x1 = 0.8706	2.002 ± 0.023

NC1CCCCC1 + CCCCOCCO
298.15 K, 101 kPa
Settings	viscosity [mPa·s]
x1 = 0.1169	2.872 ± 0.021
x1 = 0.2295	3.006 ± 0.022
x1 = 0.338	3.059 ± 0.022
x1 = 0.4427	3.069 ± 0.022
x1 = 0.5437	3.011 ± 0.022
x1 = 0.6412	2.872 ± 0.021
x1 = 0.7355	2.697 ± 0.02
x1 = 0.8266	2.447 ± 0.018
x1 = 0.9147	2.09 ± 0.016

NC1CCCCC1 + CS(C)=O
303.15 K, 101 kPa
Settings	viscosity [mPa·s]
x2 = 0.1	1.571 ± 0.017
x2 = 0.1807	1.518 ± 0.016
x2 = 0.2707	1.481 ± 0.015
x2 = 0.3707	1.467 ± 0.014
x2 = 0.4679	1.47 ± 0.013
x2 = 0.5654	1.497 ± 0.012
x2 = 0.6703	1.542 ± 0.012
x2 = 0.7894	1.611 ± 0.011
x2 = 0.8913	1.692 ± 0.011

CC(O)CO (centres undefined) + CC#N
viscosity [mPa·s], 100 kPa
Settings	x2 = 0.1127	x2 = 0.2	x2 = 0.3055	x2 = 0.4021	x2 = 0.5008	x2 = 0.5989	x2 = 0.6987	x2 = 0.7958	x2 = 0.8961
293.15 K	31.4 ± 6.3	20.3 ± 4.1	12.2 ± 2.4	7.53 ± 1.5	4.71 ± 0.94	2.9 ± 0.58	1.82 ± 0.36	1.1 ± 0.22	0.66 ± 0.13
298.15 K	25.4 ± 5.1	16.9 ± 3.4	10.3 ± 2.1	6.21 ± 1.2	4.02 ± 0.81	2.42 ± 0.49	1.57 ± 0.31	0.97 ± 0.19	0.59 ± 0.12
303.15 K	20.8 ± 4.2	13.8 ± 2.8	8.68 ± 1.7	5.48 ± 1.1	3.52 ± 0.71	2.25 ± 0.45	1.4 ± 0.28	0.87 ± 0.17	0.53 ± 0.11

ClC=C(Cl)Cl + CCCCCCCO
303.15 K, 101 kPa
Settings	viscosity [mPa·s]
x2 = 0.1161	0.734 ± 0.018
x2 = 0.2045	0.863 ± 0.019
x2 = 0.3792	1.166 ± 0.022
x2 = 0.4884	1.459 ± 0.025
x2 = 0.5714	1.767 ± 0.027
x2 = 0.6298	2.03 ± 0.029
x2 = 0.737	2.643 ± 0.033
x2 = 0.8161	3.197 ± 0.036
x2 = 0.9242	4.119 ± 0.04

O=C1CCCC1 + CCCCOC(C)=O
viscosity [mPa·s], 101 kPa
Settings	x2 = 0.0703	x2 = 0.1461	x2 = 0.2264	x2 = 0.3112	x2 = 0.4036	x2 = 0.4995	x2 = 0.6079	x2 = 0.7264	x2 = 0.8541
298.15 K	1.044 ± 0.014	1 ± 0.013	0.957 ± 0.013	0.913 ± 0.012	0.867 ± 0.012	0.826 ± 0.012	0.785 ± 0.011	0.749 ± 0.011	0.714 ± 0.011
303.15 K	0.961 ± 0.013	0.921 ± 0.012	0.881 ± 0.012	0.84 ± 0.011	0.797 ± 0.011	0.758 ± 0.011	0.72 ± 0.01	0.686 ± 0.01	0.654 ± 0.01
308.15 K	0.892 ± 0.012	0.856 ± 0.011	0.82 ± 0.011	0.783 ± 0.011	0.746 ± 0.01	0.71 ± 0.01	0.676 ± 0.01	0.645 ± 0.01	0.618 ± 0.009
313.15 K	0.835 ± 0.011	0.8 ± 0.011	0.766 ± 0.01	0.732 ± 0.01	0.697 ± 0.01	0.662 ± 0.009	0.63 ± 0.009	0.6 ± 0.009	0.575 ± 0.009
